The results in this text go back to patent US7329422B2, “Pharmaceutical compositions” (priority 2002, dated 2008).

For experiment [1], the system named is human breast cancer cells. Put plainly: purified B-2 compound on human breast cancer cells grown in tissue culture. Format: cell-based. From the text: (§1) Test were made of the purified B-2 compound on human breast cancer cells grown in tissue culture.
The test system of a further experiment is human liver cancer cells. Put plainly: purified B-2 compound on human liver cancer cells in tissue culture. In kind it is cell-based. The following applies: visually evident.
Text: as §1
The experiment was repeated using human liver cancer cells.

Turning to `Oc1cc(O)c2c(c1)O[C@H](c1ccc(O)c(O)c1)[C@H](O)[C@H]2c1c(O)cc(O)c2c1O[C@H](c1ccc(O)c(O)c1)[C@H](O)C2` [purified B-2 compound, procyanidin B-2], the “number of cells in treated samples” value in experiment [1] was “marked reduction”. The “number of cancer cells” value in the experiment on human liver cancer cells is “substantially reduced”.
